1 compound from US20230026360A1, “DETECTION OF MOLECULAR INTERACTIONS” (Orionis Biosciences, Inc., priority 2019, published 2023) can be followed below.

Common to all, as to format: cell-based
The target in assay [1] is T1, CRBN-IKZF1 interaction (Homo sapiens, UniProt Q96SW2).
T1 construct: expressed in transfected cells; host or cells: HEK293T
In words: MAPPIT forward assay, CRBN receptor fusion + IKZF1 gp130 fusion. Conditions: forward configuration; HEK293T cells; EPO; dose-response; IKZF1 isoform 7. From the text:
(§1) The traditional MAPPIT assay has been used to monitor protein-protein interactions. A bait protein (protein A) is expressed as a fusion protein in which it is genetically fused to an engineered intracellular receptor domain of the leptin receptor, which is itself fused to the extracellular domain of the erythropoietin (Epo) receptor. Binding of Epo ligand to the Epo receptor component results in activation of receptor-associated intracellular JAK2. However, activated JAK2 cannot activate the leptin receptor to trigger STAT3 binding and its phosphorylation because its tyrosine residues, normally phosphorylated by activated JAK2, have been mutated. […] Activation of STAT3 can be monitored by introduction of a STAT3-responsive reporter gene, including a luciferase-encoding gene or a gene encoding a fluorescent marker such as GFP or some other type of Fluorescent Protein (EGFP etc.). […]
(§2) Full size proteins were fused for each of the target/prey proteins tested, except in the case of IKZF1 where isoform 7 was used. […] Luciferase activity was measured 24 hours after test compound treatment using the Luciferase Assay System kit (PROMEGA, Madison, Wis.) with an Ensight plate reader (PERKIN ELMER LIFE SCIENCES, Waltham, Mass.). […]

In assay [2] the target is T2, CRBN (Homo sapiens, UniProt Q96SW2).
T2 construct: expressed in transfected cells; host or cells: HEK293T
In words: CRBN inverse MAPPIT competition assay against TMP-lenalidomide hybrid ligand. The following applies: 300 nM TMP-lenalidomide; leptin; HEK293T; specificity versus gp130-REM2 control (CTRL). From the text: As in Example 6, HEK293T cells were transfected with a plasmid encoding E. coli Dihydrofolate Reductase (DHFR) fused to the tails of the cytoplasmic domain of a mutated leptin receptor (pCLG-DHFR), a plasmid encoding a CRBN prey fused to the gp130 cytoplasmic domain or a plasmid encoding a gp130-REM2 control fusion that can directly interact with the leptin receptor of the DHFR fusion protein, and the STAT3 responsive pXP2d2-rPAPI-luciferase reporter plasmid—using a standard transfection method, as described (Lievens, et al. “Array MAPPIT: high-throughput interactome analysis in mammalian cells.” Journal of Proteome Research 8.2 (2009): 877-886). […] Data points in FIGS. 10A-B represent the average luciferase activity of triplicate samples derived from cells treated with leptin+test compound for the REM2 control (CTRL) or cells treated with leptin+hybrid ligand+test compound (CRBN) relative to leptin (CTRL) or leptin+hybrid ligand (CRBN) only treated samples (the signals obtained in absence of added test compound for both cases is set at 100% of luciferase activity on y-axis). Error bars represent standard deviations. Curves were fit using 4-parameter nonlinear regression in […] PRISM software.

For assay [3], the target named is CRBN-CSNK1A (CK1a) interaction (Homo sapiens, UniProt Q96SW2). The assay can be described thus: MAPPIT forward assay, CRBN receptor fusion + CSNK1A1 gp130 fusion. More on the design: MAPPIT chimeric receptor (EPO receptor extracellular domain + signaling-deficient leptin receptor part); expressed in transfected cells; host or cells: HEK293T. Conditions: forward configuration; HEK293T cells; EPO; dose-response.
Text: as §1, §2

In assay [4] the target is CRBN-IKZF2 interaction (Homo sapiens, UniProt Q96SW2). In words: MAPPIT inverse assay, CRBN gp130 fusion + IKZF2 receptor fusion. More on the design: expressed in transfected cells; host or cells: HEK293T. The following applies: inverse configuration; HEK293T cells; EPO; dose-response.
Text: as §1, §2

In assay [5] the test system is CRBN and human ORF(eome) cDNA library targets. The assay can be described thus: Inverse MAPPIT cell microarray ORF cDNA library screen with CRBN bait. Conditions: HEK293T. How it is done:
In order to identify ligand-induced CRBN substrates, or neosubstrates, a MAPPIT cell microarray screen was performed using the procedure described in Lievens, et al. “Proteome-scale binary interactomics in human cells.” Molecular & Cellular Proteomics 15.12 (2016): 3624-3639. In brief, HEK293T cells were transfected with a CRBN bait expression plasmid encoding a gp130-CRBN fusion construct. These transfected cells were then added to microarray screening plates containing a MAPPIT chimeric membrane receptor fusion expression plasmid collection covering over 15,000 ORFs. Each spot in the microarray contained a different chimeric receptor-ORF fusion expression plasmid, as well as a STAT3-responsive fluorescence protein-encoding reporter plasmid. Gp130-CRBN bait transfected cells landing and attaching on these spots therefore become transfected as well with the receptor-ORF prey plasmid and the reporter plasmid, resulting in a different CRBN-ORF combination being tested in the cells on every different microarray spot. Twenty-four hours after transfection cells were differentially stimulated with erythropoietin with and without the CRBN ligand CC-220 (1 μM final concentration), and reporter signal (GFP-like fluorescence reporter) was read out 48 hours later.

Entries after “also recorded” stand apart in the source; their conditions may differ.

In the case of `O=C1CC[C@H](N2Cc3c(OCc4ccc(CN5CCOCC5)cc4)cccc3C2=O)C(=O)N1` [CC-220], the “compound-induced binding of IKZF1 to CRBN (luciferase reporter signal)” value in assay [1] is “can be detected with both the forward and the inverse assay configuration”. For the same compound, in assay [2], the “competition with TMP-lenalidomide hybrid ligand for binding to CRBN (inhibition of luciferase signal)” value is “specifically inhibit hybrid-ligand induced luciferase reporter activation in a dose-dependent manner; also recorded: competed efficiently”. Moreover, in assay [3], the “compound-induced binding of CSNK1A (CK1a) to CRBN (luciferase reporter signal)” value is given as “only in the inverse assay setup an interaction signal response could be detected”. Besides, the “compound-induced binding of IKZF2 to CRBN (luciferase reporter signal)” value in assay [4] is “an interaction signal response could be detected”. Besides, the “induction of fluorescence reporter signal in ORF cDNA cell microarray screen” value in assay [5] (CC-220 1 μM final concentration, over 15,000 ORFs, erythropoietin) is recorded as “a significant induction of signal is observed for a number of ORF cDNAs”. The “dose-response confirmation of binding of three ORF hits to CRBN” value in assay [5] (inverse MAPPIT luciferase assay, EPO) is listed as “dose-dependent binding to CRBN”.
